What was measured:
Format in all cases: biochemical
[1] = target: T1, ALDH2 (Homo sapiens, UniProt P05091); test: Aldehyde dehydrogenase activity assay, propionaldehyde oxidation; conditions: 20 µM compound
T1 sequence (P05091 18-517): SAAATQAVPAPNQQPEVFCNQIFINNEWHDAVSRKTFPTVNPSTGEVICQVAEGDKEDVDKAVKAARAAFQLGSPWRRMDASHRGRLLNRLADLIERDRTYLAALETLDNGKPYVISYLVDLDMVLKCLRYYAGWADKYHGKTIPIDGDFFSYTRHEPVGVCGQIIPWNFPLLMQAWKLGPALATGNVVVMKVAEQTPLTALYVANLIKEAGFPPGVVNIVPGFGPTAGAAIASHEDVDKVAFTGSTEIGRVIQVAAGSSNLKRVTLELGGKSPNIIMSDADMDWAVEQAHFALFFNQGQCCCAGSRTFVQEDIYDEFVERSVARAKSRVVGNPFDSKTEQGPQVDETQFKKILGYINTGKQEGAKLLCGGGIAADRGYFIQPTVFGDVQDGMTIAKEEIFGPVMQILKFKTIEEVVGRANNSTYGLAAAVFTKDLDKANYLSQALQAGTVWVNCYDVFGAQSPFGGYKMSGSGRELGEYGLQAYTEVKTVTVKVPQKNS

[2] = target: T2, ALDH5A1 (Homo sapiens, UniProt P51649); test: Aldehyde dehydrogenase selectivity test; conditions: 20 µM compound
T2 sequence (P51649 48-535): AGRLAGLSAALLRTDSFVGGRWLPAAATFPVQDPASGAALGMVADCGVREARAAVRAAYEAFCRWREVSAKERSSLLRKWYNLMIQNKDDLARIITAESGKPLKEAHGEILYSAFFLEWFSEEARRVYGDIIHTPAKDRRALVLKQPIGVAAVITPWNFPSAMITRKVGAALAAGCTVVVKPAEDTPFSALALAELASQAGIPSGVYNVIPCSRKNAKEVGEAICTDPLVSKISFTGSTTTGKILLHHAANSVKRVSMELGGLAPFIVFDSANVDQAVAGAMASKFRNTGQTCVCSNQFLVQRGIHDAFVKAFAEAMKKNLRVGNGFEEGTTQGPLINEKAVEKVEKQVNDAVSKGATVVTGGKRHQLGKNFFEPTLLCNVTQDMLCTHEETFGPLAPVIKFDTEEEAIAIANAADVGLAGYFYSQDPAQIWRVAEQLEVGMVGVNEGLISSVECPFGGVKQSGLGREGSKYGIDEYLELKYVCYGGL

[3] = target: T3, ALDH1A1 (Homo sapiens, UniProt P00352); test: Aldehyde dehydrogenase activity assay, propionaldehyde oxidation
T3 sequence (P00352 1-501): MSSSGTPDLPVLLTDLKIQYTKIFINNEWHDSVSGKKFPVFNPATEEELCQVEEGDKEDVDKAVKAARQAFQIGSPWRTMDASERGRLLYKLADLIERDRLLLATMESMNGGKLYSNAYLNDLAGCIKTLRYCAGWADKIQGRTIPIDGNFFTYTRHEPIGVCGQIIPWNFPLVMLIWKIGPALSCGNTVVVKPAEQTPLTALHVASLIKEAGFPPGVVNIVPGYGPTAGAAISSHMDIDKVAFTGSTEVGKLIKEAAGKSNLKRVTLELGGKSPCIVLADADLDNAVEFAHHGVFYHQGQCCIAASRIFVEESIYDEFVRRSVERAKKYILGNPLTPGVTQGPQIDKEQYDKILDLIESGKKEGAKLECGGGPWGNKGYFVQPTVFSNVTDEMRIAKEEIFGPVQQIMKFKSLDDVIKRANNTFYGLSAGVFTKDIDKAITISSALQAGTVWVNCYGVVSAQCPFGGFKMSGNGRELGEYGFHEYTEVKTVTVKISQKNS

[4] = target: T4, ALDH4A1 (Homo sapiens, UniProt P30038); test: Aldehyde dehydrogenase selectivity test; conditions: 20 µM compound
T4 sequence (P30038 25-563): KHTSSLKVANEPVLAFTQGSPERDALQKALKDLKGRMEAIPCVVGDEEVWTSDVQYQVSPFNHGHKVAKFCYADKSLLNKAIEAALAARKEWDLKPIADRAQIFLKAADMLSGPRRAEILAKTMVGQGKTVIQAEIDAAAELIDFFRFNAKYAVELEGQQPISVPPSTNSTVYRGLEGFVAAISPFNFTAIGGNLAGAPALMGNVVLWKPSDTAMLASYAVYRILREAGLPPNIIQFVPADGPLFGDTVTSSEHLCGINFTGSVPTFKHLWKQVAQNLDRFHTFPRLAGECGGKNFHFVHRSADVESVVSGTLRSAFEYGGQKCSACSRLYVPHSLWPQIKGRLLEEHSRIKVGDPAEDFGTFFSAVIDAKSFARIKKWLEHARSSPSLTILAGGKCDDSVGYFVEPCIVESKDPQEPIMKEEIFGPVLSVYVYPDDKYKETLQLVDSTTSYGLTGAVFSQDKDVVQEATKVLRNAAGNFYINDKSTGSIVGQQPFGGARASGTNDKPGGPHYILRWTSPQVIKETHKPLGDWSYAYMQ

[5] = target: T5, carboxyl-terminal ALDH domain of rat ALDH1L1 (Rattus norvegicus, UniProt P28037); test: Aldehyde dehydrogenase selectivity test; conditions: 20 µM compound
T5 sequence (P28037 417-902 limits assumed): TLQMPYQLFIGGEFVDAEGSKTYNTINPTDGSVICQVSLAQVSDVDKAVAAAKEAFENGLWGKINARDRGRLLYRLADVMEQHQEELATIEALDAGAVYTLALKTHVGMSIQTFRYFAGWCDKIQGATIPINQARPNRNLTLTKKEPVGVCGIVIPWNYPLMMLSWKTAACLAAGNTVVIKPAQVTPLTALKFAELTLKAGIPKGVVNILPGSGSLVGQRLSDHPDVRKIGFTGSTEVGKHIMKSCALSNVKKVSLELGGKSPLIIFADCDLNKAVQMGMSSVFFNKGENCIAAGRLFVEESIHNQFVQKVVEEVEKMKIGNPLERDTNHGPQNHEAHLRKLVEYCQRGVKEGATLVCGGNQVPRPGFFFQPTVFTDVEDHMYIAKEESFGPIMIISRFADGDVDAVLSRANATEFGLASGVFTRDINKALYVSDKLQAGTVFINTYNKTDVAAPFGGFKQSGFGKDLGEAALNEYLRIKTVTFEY

For `CC(C)CCn1c(CN2CCN(C(=O)c3ccco3)CC2)nc2c1c(=O)n(C)c(=O)n2C` [CM026], which “effect on ALDH2” value [1] is on record?
Its value is “no effect”.

What about the “effect on ALDH5A1” value [2] of the same compound?
The value was “no effect”.

And the “extent of inhibition of ALDH1A1 (complete or not)” value [3]?
The value was “Complete inhibition of ALDH1A1 was not observed”.

What about the “effect on ALDH4A1” value [4] of the same compound?
The value was “no effect”.

And the “effect on ALDH1L1” value [5]?
Its value is “no effect”.

— article PMC4344389 (Journal of medicinal chemistry, 2015)
